Assay results reported in PMC6271935, “Synthesis and Broad-Spectrum Antiviral Activity of Some Novel Benzo-Heterocyclic Amine Compounds” (Molecules, 2014).
pIC50: −log10 of the molar value.

What was measured:
[1] = test system: MDCK cells; assay: Cytotoxicity in MDCK cells (CPE); type: cell-based, Canine; settings: 48 h, Reed & Muench
Protocol: (§1) The cytotoxicity of the compounds in MDCK, Vero and HepG2.2.15 cells was monitored via cytopathic effect (CPE) assays. The MDCK and Vero cells (2.5 × 10^4 /well) were plated in a 96-well plate. Following a 24 h hold period, the monolayer of cells was incubated in the presence of various concentrations of the test compounds. […] The TC50 value was calculated using Reed & Muench analysis.

[2] = test system: Influenza A/hanfang/359/95; assay: microbe, parasite or virus in culture; type: cell-based; settings: for pIC50: Influenza A virus, MDCK
[3] = test system: Huh7.5 cells; assay: Cytotoxicity in Huh7.5 cells (MTT); type: cell-based, human; settings: 96 h
Protocol: The Huh7.5 cells (1 × 10^4 cells/well) were plated in 96-well plates. Six hours later the culture media was replaced with fresh medium containing the test compounds at various concentrations. Cytotoxicity was evaluated with the 3-(4,5-dimethylthiazol-2-yl)-2,5-diphenyltetrazolium bromide (MTT) assay after 96 h.
Huh7.5 cells were seeded at a density of 3 × 10^4 cells/cm^2. After 24 h of incubation, the cells were infected with an HCV viral stock (approximately 45 IU per cell) and simultaneously treated with Telaprevir, the test compounds, or the solvent control. The culture medium was removed 96 h after inoculation, and the total intracellular RNA and total intracellular proteins were extracted with a Qiagen Kit according to the manufacturer’s instructions. Intracellular HCV RNA was quantified using a one-step real time RT-PCR kit (Invitrogen). Cytotoxicity was tested by the MTT assay, and IC50 values were calculated by the Reed and Muench methods.

[4] = test system: HCV; assay: Anti-HCV assay in Huh7.5 cells, intracellular HCV RNA by real time RT-PCR; type: cell-based; settings: Hepatitis C virus, 96 h
[5] = test system: HepG2.2.15 cells; assay: Cytotoxicity in HepG2.2.15 cells (CPE); type: cell-based, human; settings: 3 + 3 days
Protocol: Cells were cultured for 3 days at 37 °C in a 5% CO2 atmosphere in an incubator, and the medium was replaced with fresh medium containing the test compounds for an additional 3 days. The cells were subsequently monitored by CPE and the TC50 value was calculated using Reed and Muench analysis.

[6] = test system: Cox B3; assay: organism not typed; type: cell-based, Coxsackie viruses (Cox B3 Nancy strain); settings: for pIC50: Vero
[7] = test system: Vero cells; assay: Cytotoxicity in Vero cells (CPE); settings: 48 h, Reed & Muench
Protocol: as §1

[8] = test system: HBV; assay: Anti-HBV assay in HepG2.2.15 cells, viral DNA by real time PCR; type: cell-based, Hepatitis B virus; settings: for pIC50: Hepatitis B virus, HepG2.2.15, 144 h, intracellular viral DNA, 3 + 3 days
Protocol: The synthesized target compounds were assayed for their broad spectrum antiviral activity towards influenza A, HBV, HCV and Cox B3 virus in vitro. […] The inhibitory activities towards HBV and HCV were tested by real time PCR, and lamivudine (3TC) and teleprevir were used as positive controls, respectively.
The anti-HBV activities of test compounds and a positive control drug were tested in HepG2.2.15 cells. The HepG2.2.15 cells were cultured in 96-well plates and treated with the test compounds at 37 °C for 3 days. The medium was removed, and fresh medium containing the test compounds was added for an additional 3 days. The cells were harvested and intracellular DNA was extracted. The inhibition of viral DNA replication in treated cells versus untreated cells was determined by real time PCR.

SMILES	TC50 (50% cytotoxic concentration), Influenza A/hanfang/359/95 [1] [µM]	pIC50 [2]	TC50 (50% cytotoxic concentration), HCV [3] [µM]	melting point [°C]	pIC50 [4]	TC50 (50% cytotoxic concentration), HBV [5] [µM]	pIC50 [6]	TC50 (50% cytotoxic concentration), Cox B3 [7] [µM]	pIC50 [8]	anti-HBV activity (in words) [8]	anti-influenza A activity (in words) ([2]; MDCK cells, CPE)	inhibitory activity towards Cox B3 (in words) ([6]; Vero cells, CPE)
Clc1ccc(CNc2ccc3cc[nH]c3c2)cc1 [1a, (4-Chlorobenzyl)-(1H-indol-6-yl)-amine]	3.35	< 5.80	15.88	135 to 137	5.85	8.02	5.32	8.34	5.84	–	–	–
C(=C\c1ccccc1)/CNc1ccc2cc[nH]c2c1 [1b, (E)-(1H-Indol-6-yl)-(3-phenylallyl)-amine]	2.86	< 5.78	–	130 to 132	–	3.21	5.54	8.61	< 5.73	–	–	–
Cc1ccc(CNc2ccc3cc[nH]c3c2)o1 [1c, (1H-Indol-6-yl)-(5-methylfuran-2-ylmethyl)-amine]	4.52	< 6.18	46.78	100 to 102	5.56	16.67	5.71	25.15	< 5.25	complete loss of antiviral activity	–	–
Cc1ccc(CNc2ccc3cc[nH]c3c2)s1 [1d, (1H-Indol-6-yl)-(5-methylthiophen-2-ylmethyl)-amine]	26.50	4.93	–	89 to 91	–	28.87	5.77	66.10	< 4.78	–	–	–
COc1cc(CNc2ccc3ncoc3c2)cc(Br)c1O [2a, 4-(Benzooxazol-6-ylaminomethyl)-2-bromo-6-methoxyphenol]	64.04	< 4.97	89.63	129 to 131	4.48	28.87	5.45	55.13	< 4.78	–	–	–
O=[N+]([O-])c1ccc(CNc2ccc3ncoc3c2)cc1 [2b, Benzooxazol-6-yl-(4-nitrobenzyl)-amine]	288.23	4.38	>200	154 to 156	< 4.18	16.67	4.50	257.52	< 5.25	–	–	–
C(=C\c1ccccc1)/CNc1ccc2ncoc2c1 [2c, (E)-Benzooxazol-6-yl-(3-phenylallyl)-amine]	133.16	4.94	105.44	100 to 103	4.98	28.87	5.91	103.36	< 4.78	–	–	–
c1csc(CNc2ccc3ncoc3c2)c1 [2d, Benzooxazol-6-yl-thiophen-2-ylmethylamine]	434.24	4.46	136.53	62 to 64	< 4.18	–	5.03	100.35	–	–	–	–
Clc1ccc(CNc2ccc3ncoc3c2)s1 [2e, Benzooxazol-6-yl-(5-chlorothiophen-2-ylmethyl)-amine]	87.30	4.96	45.78	100 to 102	4.75	19.25	5.45	29.08	< 4.95	–	–	–
c1ncc(CNc2ccc3ncoc3c2)cn1 [2f, Benzooxazol-6-yl-pyrimidin-5-ylmethyl-amine]	425.44	< 4.01	–	175 to 177	–	–	4.25	295.10	–	–	–	–
c1cnc2c(CNc3ccc4ncoc4c3)cccc2c1 [2g, Benzooxazol-6-yl-quinolin-8-ylmethylamine]	56.04	5.04	27.57	98 to 100	4.85	–	5.05	80.80	–	–	–	–
Nc1ccn([C@@H]2CS[C@H](CO)O2)c(=O)n1 [3TC, lamivudine, reference compound]	–	–	–	–	–	>100	–	–	5.73	–	–	–
COc1cc(CNc2ccc3ncsc3c2)cc(Br)c1O [3a, 4-(Benzothiazol-6-ylaminomethyl)-2-bromo-6-methoxyphenol]	21.08	< 4.99	108.82	193 to 195	4.31	28.87	4.99	21.08	< 4.78	–	–	–
COc1cccc(CNc2ccc3ncsc3c2)c1O [3b, 2-(Benzothiazol-6-ylaminomethyl)-6-methoxyphenol]	55.95	5.00	126.59	206 to 208	4.42	57.74	5.25	67.23	< 4.48	–	–	–
O=[N+]([O-])c1cccc(CNc2ccc3ncsc3c2)c1 [3c, Benzothiazol-6-yl-(3-nitrobenzyl)-amine]	45.01	4.90	–	126 to 128	–	–	5.14	112.45	–	–	–	–
O=[N+]([O-])c1ccc(CNc2ccc3ncsc3c2)cc1 [3d, Benzothiazol-6-yl-(4-nitrobenzyl)-amine]	272.01	5.47	142.86	–	4.65	9.62	5.74	181.3	< 5.25	–	–	–
c1csc(CNc2ccc3ncsc3c2)c1 [3h, Benzothiazol-6-yl-thiophen-2-ylmethylamine]	78.14	5.18	153.72	148 to 150	4.32	–	4.98	65.03	–	–	–	–
c1ccc2c(CNc3ccc4ncsc4c3)c3ccccc3cc2c1 [3k, Anthracen-9-ylmethyl-benzothiazol-6-yl-amine]	1.73	< 6.39	–	174 to 176	–	–	–	2.09	–	–	complete loss in activity	no inhibitory activity
C(=C\c1ccccc1)/CNc1ccc2nc[nH]c2c1 [4a, (E)-(3H-Benzoimidazol-5-yl)-(3-phenyl-allyl)-amine]	14.84	5.31	79.04	–	5.26	–	5.20	25.75	–	–	–	–
CCOC(=O)C1=C[C@@H](OC(CC)CC)[C@H](NC(C)=O)[C@@H](N)C1 [Oseltamivir, oseltamivir, reference compound]	4030.42	4.72	–	–	–	–	–	–	–	–	–	–
NC(=O)c1ncn([C@@H]2O[C@H](CO)[C@@H](O)[C@H]2O)n1 [RBV, ribavirin, reference compound]	–	5.06	–	–	–	–	2.67	–	–	–	–	–
CCC[C@H](NC(=O)[C@@H]1[C@H]2CCC[C@H]2CN1C(=O)[C@@H](NC(=O)[C@@H](NC(=O)c1cnccn1)C1CCCCC1)C(C)(C)C)C(=O)C(=O)NC1CC1 [Telaprevir, telaprevir, reference compound]	–	–	32.12	–	7.96	–	–	–	–	–	–	–
